Test results as given in ChEMBL document CHEMBL1138659 (J Med Chem, 2004).

Experiments:
[1] = molecular target: cAMP-dependent protein kinase catalytic subunit beta (Homo sapiens, UniProt P22694); assay: Inhibition of human Protein kinase A beta
[2] = molecular target: T1, Glycogen synthase kinase-3 beta (Homo sapiens, UniProt P49841)
Description: Inhibition of human Glycogen synthase kinase-3 beta

Rattus norvegicus [3] = assay: In vivo glucose reduction in rats at 10 mg/kg dose; type: functional; design: scale not given: the % may be the effect or the level left
[4] = molecular target: Cyclin-dependent kinase 4 (Homo sapiens, UniProt P11802); assay: Inhibition of human Cyclin-dependent kinase 4
Chain of Cyclin-dependent kinase 4 (P11802 whole entry): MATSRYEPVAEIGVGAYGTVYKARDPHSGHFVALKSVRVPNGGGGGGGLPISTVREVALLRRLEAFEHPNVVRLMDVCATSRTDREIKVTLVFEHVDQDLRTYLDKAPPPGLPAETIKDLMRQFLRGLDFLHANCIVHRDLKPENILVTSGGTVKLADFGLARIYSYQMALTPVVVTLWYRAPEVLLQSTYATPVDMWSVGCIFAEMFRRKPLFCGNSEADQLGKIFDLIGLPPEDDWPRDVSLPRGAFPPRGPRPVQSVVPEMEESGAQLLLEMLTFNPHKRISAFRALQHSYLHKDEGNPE

[5] = molecular target: RAC-alpha serine/threonine-protein kinase (Homo sapiens, UniProt P31749); assay: Inhibition of human Akt1
Chain of RAC-alpha serine/threonine-protein kinase (P31749 whole entry): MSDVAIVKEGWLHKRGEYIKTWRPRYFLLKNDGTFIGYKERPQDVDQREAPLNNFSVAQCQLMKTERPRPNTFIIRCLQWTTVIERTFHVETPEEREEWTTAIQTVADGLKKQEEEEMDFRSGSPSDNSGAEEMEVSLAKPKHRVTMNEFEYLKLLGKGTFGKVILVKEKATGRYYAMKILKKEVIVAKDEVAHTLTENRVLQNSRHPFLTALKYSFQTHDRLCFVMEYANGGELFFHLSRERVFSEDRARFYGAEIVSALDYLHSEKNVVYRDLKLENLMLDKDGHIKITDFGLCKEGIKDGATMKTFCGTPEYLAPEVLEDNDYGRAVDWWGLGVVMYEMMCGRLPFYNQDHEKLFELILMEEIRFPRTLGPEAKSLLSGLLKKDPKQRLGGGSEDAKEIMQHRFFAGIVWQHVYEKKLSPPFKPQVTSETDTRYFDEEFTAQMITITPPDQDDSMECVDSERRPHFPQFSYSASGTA

TGF-beta receptor type-2 = TGF-beta receptor type-2 (Homo sapiens, UniProt P37173); assay: Inhibition of human TGF-beta type II receptor
Chain of TGF-beta receptor type-2 (P37173 whole entry): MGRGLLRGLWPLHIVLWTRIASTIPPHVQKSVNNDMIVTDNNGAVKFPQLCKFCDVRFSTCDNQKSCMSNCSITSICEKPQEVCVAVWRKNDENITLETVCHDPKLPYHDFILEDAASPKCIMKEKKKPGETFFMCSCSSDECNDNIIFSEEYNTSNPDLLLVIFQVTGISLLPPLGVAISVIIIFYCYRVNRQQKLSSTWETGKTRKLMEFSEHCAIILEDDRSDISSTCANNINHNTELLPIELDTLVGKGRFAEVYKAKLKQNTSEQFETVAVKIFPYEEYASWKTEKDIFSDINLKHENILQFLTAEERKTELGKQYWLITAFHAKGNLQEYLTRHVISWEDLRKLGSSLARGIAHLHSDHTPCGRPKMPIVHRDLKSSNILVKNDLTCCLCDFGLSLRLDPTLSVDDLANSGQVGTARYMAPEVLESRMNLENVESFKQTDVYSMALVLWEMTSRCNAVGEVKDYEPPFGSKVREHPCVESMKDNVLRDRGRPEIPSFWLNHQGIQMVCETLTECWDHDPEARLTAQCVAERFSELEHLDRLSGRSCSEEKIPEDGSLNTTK

Rattus norvegicus [6] = assay: In vivo insulin (10 units) response in rats at 10 mg/kg dose; type: functional
[7] = molecular target: Protein kinase C beta type (Homo sapiens, UniProt P05771); assay: Inhibition of human Protein kinase C beta 2
Chain of Protein kinase C beta type (P05771 whole entry): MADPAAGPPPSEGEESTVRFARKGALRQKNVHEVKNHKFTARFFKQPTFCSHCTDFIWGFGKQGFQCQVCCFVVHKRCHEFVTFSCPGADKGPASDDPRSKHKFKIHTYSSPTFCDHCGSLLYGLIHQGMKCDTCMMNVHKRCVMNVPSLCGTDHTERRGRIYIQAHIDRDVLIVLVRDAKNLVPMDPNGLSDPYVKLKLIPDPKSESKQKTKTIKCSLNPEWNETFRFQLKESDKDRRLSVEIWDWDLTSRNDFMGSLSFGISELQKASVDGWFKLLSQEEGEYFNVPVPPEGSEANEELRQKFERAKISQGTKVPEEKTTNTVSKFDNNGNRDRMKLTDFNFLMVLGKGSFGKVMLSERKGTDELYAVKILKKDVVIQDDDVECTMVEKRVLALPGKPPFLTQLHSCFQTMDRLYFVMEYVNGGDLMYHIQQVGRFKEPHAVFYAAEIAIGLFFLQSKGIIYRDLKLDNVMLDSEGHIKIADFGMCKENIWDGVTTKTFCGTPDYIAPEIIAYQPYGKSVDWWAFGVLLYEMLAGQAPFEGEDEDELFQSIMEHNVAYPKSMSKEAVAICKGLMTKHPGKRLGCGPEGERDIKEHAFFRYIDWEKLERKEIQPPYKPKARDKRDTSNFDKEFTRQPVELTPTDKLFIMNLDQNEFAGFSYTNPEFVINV

[8] = molecular target: T1, Glycogen synthase kinase-3 beta; assay: Inhibition of Glycogen synthase kinase-3 beta dependent Tau protein serine-396 phosphorylation in human SY5Y cells; type: functional, cell-based
Rattus norvegicus [9] = species on record: Rattus norvegicus; assay: Threshold minimal effective dose in rats; type: functional
[10] = molecular target: Vascular endothelial growth factor receptor 2 (Homo sapiens, UniProt P35968); assay: Inhibition of human Vascular endothelial growth factor receptor 2
Chain of Vascular endothelial growth factor receptor 2 (P35968 whole entry): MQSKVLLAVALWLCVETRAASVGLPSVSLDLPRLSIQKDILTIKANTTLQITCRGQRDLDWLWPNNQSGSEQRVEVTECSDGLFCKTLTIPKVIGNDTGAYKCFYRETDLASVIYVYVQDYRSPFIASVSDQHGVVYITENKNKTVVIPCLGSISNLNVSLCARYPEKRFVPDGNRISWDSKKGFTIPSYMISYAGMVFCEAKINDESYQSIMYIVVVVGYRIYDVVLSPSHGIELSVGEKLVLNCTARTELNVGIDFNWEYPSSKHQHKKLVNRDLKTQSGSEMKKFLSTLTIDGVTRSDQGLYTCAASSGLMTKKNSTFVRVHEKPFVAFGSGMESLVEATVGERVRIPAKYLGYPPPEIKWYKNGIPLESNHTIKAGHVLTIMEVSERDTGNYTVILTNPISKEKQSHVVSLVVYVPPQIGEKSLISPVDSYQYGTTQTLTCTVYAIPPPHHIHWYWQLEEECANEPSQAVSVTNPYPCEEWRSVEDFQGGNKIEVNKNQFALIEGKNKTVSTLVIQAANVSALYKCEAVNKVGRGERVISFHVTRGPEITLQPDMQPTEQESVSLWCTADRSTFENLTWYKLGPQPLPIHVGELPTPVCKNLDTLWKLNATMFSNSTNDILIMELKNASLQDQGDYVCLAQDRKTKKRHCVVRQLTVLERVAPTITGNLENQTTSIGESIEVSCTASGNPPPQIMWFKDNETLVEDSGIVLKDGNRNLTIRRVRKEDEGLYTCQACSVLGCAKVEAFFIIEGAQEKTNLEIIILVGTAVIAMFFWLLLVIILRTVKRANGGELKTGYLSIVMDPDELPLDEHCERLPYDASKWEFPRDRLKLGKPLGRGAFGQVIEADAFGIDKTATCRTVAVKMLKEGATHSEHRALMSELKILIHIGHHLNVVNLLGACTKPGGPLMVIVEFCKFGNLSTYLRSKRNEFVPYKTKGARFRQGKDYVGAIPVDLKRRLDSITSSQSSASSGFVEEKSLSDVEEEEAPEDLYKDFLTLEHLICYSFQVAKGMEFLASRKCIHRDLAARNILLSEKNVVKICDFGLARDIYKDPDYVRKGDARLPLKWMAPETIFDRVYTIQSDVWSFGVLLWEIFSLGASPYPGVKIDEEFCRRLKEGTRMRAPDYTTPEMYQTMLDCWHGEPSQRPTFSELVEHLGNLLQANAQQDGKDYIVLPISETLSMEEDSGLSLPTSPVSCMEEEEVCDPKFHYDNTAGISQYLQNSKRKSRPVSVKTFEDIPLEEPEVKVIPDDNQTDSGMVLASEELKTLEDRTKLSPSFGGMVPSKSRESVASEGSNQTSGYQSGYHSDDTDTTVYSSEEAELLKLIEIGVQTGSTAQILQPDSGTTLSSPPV

[11] = molecular target: Cyclin-dependent kinase 2 (Homo sapiens, UniProt P24941); assay: Inhibition of human Cyclin-dependent kinase 2
MAP kinase p38 = MAP kinase p38 (Homo sapiens, UniProt O15264+Q15759+Q16539+P53778); assay: Inhibition of human Mitogen-activated protein kinase p38
[12] = molecular target: Mitogen-activated protein kinase kinase kinase 20 (Homo sapiens, UniProt Q9NYL2)
Chain of Mitogen-activated protein kinase kinase kinase 20 (Q9NYL2 whole entry): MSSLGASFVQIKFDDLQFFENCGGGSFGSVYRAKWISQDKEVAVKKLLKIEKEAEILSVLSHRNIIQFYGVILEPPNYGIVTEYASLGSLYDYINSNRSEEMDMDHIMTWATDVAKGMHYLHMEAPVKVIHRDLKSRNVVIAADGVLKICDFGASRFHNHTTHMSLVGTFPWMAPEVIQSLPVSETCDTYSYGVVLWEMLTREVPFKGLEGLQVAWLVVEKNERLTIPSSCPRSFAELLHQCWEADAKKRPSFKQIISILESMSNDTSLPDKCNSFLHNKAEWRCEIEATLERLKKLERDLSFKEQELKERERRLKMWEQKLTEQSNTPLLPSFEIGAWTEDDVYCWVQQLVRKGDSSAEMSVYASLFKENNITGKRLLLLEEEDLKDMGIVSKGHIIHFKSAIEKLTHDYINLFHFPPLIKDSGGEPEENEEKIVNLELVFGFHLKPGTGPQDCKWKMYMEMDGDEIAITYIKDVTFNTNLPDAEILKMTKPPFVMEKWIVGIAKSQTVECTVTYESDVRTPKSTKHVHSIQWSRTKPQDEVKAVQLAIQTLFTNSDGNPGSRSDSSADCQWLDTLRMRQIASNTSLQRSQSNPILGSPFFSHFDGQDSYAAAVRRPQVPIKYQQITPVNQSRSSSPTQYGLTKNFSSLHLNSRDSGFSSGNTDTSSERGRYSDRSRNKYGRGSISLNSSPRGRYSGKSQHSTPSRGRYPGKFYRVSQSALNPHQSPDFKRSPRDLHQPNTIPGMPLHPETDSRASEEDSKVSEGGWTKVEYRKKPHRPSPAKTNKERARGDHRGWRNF

[13] = Compound was tested for volume distribution; type: ADME; details: rat; read-out: Volume distribution
[14] = Half life in in vivo, hours; type: ADME, organism-based; details: rat
[15] = Compound was tested for oral AUC at 0 to 24 hours; type: ADME; design: time < 24 hr, route oral; details: rat
[16] = Half life in oral, hours; type: ADME, organism-based; details: rat, in vivo
[17] = Compound was tested for in vivo clearance; type: ADME, organism-based; details: rat
[18] = Oral bioavailability; type: ADME, organism-based; details: rat, in vivo

T1 sequence (P49841 whole entry): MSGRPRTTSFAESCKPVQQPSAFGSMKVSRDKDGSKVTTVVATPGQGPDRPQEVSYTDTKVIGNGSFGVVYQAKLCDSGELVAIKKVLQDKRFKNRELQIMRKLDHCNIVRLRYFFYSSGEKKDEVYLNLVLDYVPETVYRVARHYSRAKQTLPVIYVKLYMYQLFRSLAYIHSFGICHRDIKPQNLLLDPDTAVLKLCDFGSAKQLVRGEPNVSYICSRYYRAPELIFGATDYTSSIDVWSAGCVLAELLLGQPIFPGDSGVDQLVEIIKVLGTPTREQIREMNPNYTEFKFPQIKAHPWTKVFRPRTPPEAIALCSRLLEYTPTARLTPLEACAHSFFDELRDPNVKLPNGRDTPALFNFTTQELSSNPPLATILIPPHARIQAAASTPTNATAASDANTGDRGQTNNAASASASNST

Compound: O=C1NC(=O)C(c2cnc3ccccn23)=C1c1cn2c3c(cccc13)CN(C(=O)N1CCOCC1)CC2
- IC50 [1]: > 20 µM
- IC50 [2]: 1.3 nM
- Activity (Rattus norvegicus [3]): 78%
- IC50 [4]: 1700 nM
- IC50 [5]: > 20 µM
- IC50 (TGF-beta receptor type-2): 2000 nM
- Response (Rattus norvegicus [6]): 119%
- IC50 [7]: 1100 nM
- IC50 [8]: 2.6 nM
- TMED (Rattus norvegicus [9]): 1.44 mg/kg

Compound: O=C1NC(=O)C(c2cnc3ccccn23)=C1c1cn2c3c(cccc13)CN(C(=O)N1CCCCC1)CC2
- IC50 [10]: > 20 µM
- IC50 [2]: 2 nM
- Activity (Rattus norvegicus [3]): 69%
- IC50 [4]: 4800 nM
- IC50 [5]: > 20 µM
- IC50 (TGF-beta receptor type-2): 3100 nM
- IC50 [11]: 5.4 µM
- Response (Rattus norvegicus [6]): 124%
- IC50 [7]: 560 nM
- IC50 (MAP kinase p38): > 20 µM
- IC50 [8]: 1.6 nM
- TMED (Rattus norvegicus [9]): 2.22 mg/kg

Compound: CN(C)C(=O)N1CCn2cc(C3=C(c4cnc5ccccn45)C(=O)NC3=O)c3cccc(c32)C1
- IC50 [10]: > 20 µM
- IC50 [1]: > 20 µM
- IC50 [2]: 1.6 nM
- Activity (Rattus norvegicus [3]): 53%
- IC50 [4]: 1500 nM
- IC50 [5]: > 20 µM
- IC50 (TGF-beta receptor type-2): > 20000 nM
- IC50 [11]: 2.1 µM
- Response (Rattus norvegicus [6]): 104%
- IC50 [7]: 1000 nM
- IC50 [12]: > 20 µM
- IC50 (MAP kinase p38): > 20 µM
- IC50 [8]: 12 nM

Compound: CC(C)OC(=O)N1CCn2cc(C3=C(c4cnc5ccccn45)C(=O)NC3=O)c3cccc(c32)C1
- IC50 [10]: > 20 µM
- IC50 [1]: > 20 µM
- IC50 [2]: 1.3 nM
- Activity (Rattus norvegicus [3]): 58%
- IC50 [4]: 3300 nM
- IC50 [5]: > 20 µM
- IC50 (TGF-beta receptor type-2): > 20000 nM
- IC50 [11]: 3.4 µM
- Response (Rattus norvegicus [6]): 105%
- IC50 [7]: 800 nM
- IC50 [12]: > 20 µM
- IC50 [8]: 15 nM
- TMED (Rattus norvegicus [9]): 4.27 mg/kg

Compound: O=C1NC(=O)C(c2cnc3ccccn23)=C1c1cn2c3c(cc(F)cc13)CN(C(=O)N1CCCCC1)CC2 [LY-2090314]
- Vd [13]: 1 L
- half-life [14]: 66 min
- AUC [15]: 3550 ng·h/mL
- IC50 [1]: > 20 µM
- IC50 [2]: 1.1 nM
- Activity (Rattus norvegicus [3]): 61%
- IC50 [4]: 1800 nM
- IC50 [5]: > 20 µM
- IC50 (TGF-beta receptor type-2): 1200 nM
- Response (Rattus norvegicus [6]): 124%
- IC50 [7]: 420 nM
- IC50 [8]: 0.7 nM
- half-life [16]: 168 min
- clearance [17]: 12 mL/min/kg
- TMED (Rattus norvegicus [9]): 1.5 mg/kg
- bioavailability [18]: 23%
